# Laboratory results published in patent US20250017931A1, “METHODS OF PERSONALIZING CANCER TREATMENT” (PROCESSA PHARMACEUTICALS, INC.,, priority 2023, published 2025).
# Where two headings read alike, the source gives them in different places.
# What was measured:
# [1] = human, in vivo
# Procedure: 40 mg of PCS6422 is administered to the subjects on day 1. Subsequently, 75 mg of capecitabine is administered to the subjects daily (Cohort 1) or twice daily (Cohort 2A, morning and night) on days 2-8 followed by 6 days of a drug-free period (days 9-14).
# Blood samples for pharmacokinetic (PK) analysis of PCS6422 and its major metabolite, 5-acetyluracil, are drawn in cycle 1 on day 1 at 0 (pre-dose), 1, 2, 3, 5, 7, 9, and 24 hours post PCS6422 administration. On the first day of capecitabine treatment (Cycle 1, day 2), blood samples for PK analysis of capecitabine, 5-fluorouracil (5-FU), and the quantifiable main metabolites, α-fluoro-β-alanine (FBAL), 5′-deoxy-5-fluorocytidine (5′-DFCR), and doxifluridine (5′-DFUR) are obtained at the following time points relative to administration of the first dose of capecitabine (dose 1): 0 (pre-dose/trough), 0.5, 1, 2, 3, 5, 7, and at 9 hours. In cycle 1 on Day 8, blood samples are obtained at the following time points relative to administration of the dose of capecitabine (dose 7 of cycle 1): 0 (pre-dose/trough), 0.5, 1, 2, 3, 5, 7, 9, 24, 30, and 48 hours post-capecitabine dose. A capecitabine blood sample is also drawn on cycle 2, day 1, prior to the dose of PCS6422.
# Blood samples are also drawn for the analysis of DPD activity using uracil and dihydrouracil concentrations at screening and at the following times during Cycle 1: Day 1, Day 2, Day 8, Day 9, and Day 10. A blood sample is also drawn on Cycle 2, day 1 prior to the dose of PCS6422. All blood samples for analysis of uracil and dihydrouracil concentrations are taken prior a subject's meal, if possible. Actual sample time is recorded. Validated analytical methods are used to determine the concentrations of PCS6422, 5-acetyluracil, capecitabine, 5-FU, FBAL, 5′-DFCR, and 5′-DFUR, uracil, and/or dihydrouracil in plasma.
# [2] = human, in vivo; remark: listed apart in the source
# Procedure: 40 mg of PCS6422 was administered to the subjects on both of day 1 and day 5 (Cohort 2B) or on only day 1 (Cohort 2D). Subsequently, 75 mg of capecitabine was administered to the subjects twice daily (morning and night) on days 2-8 followed by 6 days of a drug-free period (days 9-14).
# Blood samples for PK analysis of PCS6422 and its major metabolite, 5-acetyluracil in Cycle 1 on Day 1 was drawn at 0 (pre-dose), 1, 2, 3, 5, 7, 9 and 24 hours. The 24-hour post dose sample was collected prior to capecitabine administration on Day 2.
# On the first day of capecitabine treatment (Cycle 1, Day 2), blood samples for PK analysis of capecitabine, 5-fluorouracil (5-FU), and the quantifiable main metabolites, α-fluoro-β-alanine (FBAL), 5′-deoxy-5-fluorocytidine (5′-DFCR), and doxifluridine (5′-DFUR) were obtained at the following time points relative to administration of the first dose of capecitabine […]: 0 (pre-dose), 0.5, 1, 2, 3, 5, 7, and 9 hours. In Cycle 1 on Day 8, blood samples were obtained at the following time points relative to administration of the morning dose of capecitabine at time 0 (pre-dose/trough), 0.5, 1, 2, 3, 5, 7, and 9 hours.
# Additional PK blood samples for capecitabine and its main metabolites were obtained prior to administration of the morning dose of capecitabine on Days 3, 4, 5, 6, 7, 9. Validated analytical methods were used to determine the concentrations of PCS6422, 5-aceyluracil, capecitabine, 5-FU, FBAL, 5′-DFCR, and 5′-DFUR in plasma.
# [3] = laboratory animals; cited from earlier work
# [4] = molecular target: T1, dihydropyrimidine dehydrogenase (DPD) (Homo sapiens, UniProt Q12882); details: background statement; cited from earlier work
# T1 sequence (Q12882 4-1025): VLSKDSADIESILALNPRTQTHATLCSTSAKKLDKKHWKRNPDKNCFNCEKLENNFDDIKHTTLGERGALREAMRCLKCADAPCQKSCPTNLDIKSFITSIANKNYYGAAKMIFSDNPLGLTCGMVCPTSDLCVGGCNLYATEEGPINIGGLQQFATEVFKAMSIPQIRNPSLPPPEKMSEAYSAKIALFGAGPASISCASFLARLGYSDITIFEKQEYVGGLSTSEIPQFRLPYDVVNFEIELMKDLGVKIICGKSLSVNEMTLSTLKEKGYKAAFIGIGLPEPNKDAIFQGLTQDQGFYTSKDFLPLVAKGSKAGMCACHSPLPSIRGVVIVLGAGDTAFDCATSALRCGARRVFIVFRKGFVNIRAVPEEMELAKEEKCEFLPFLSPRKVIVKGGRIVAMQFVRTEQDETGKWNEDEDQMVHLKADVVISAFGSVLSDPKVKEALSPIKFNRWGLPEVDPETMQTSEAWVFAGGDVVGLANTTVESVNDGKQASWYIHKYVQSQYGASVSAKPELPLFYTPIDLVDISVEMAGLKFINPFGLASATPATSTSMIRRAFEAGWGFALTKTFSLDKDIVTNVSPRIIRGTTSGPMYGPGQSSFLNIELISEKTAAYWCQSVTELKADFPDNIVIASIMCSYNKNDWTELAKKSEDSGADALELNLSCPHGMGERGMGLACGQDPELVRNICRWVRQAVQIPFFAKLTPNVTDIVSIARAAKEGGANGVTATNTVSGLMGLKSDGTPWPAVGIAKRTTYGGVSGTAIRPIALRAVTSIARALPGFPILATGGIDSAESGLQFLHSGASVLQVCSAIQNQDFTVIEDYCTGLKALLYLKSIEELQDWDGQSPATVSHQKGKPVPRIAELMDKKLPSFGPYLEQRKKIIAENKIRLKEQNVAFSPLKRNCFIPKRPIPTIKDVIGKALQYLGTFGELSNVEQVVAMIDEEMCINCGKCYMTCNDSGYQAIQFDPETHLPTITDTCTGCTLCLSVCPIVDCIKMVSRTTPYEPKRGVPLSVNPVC
# [5] = molecular target: T1, dihydropyrimidine dehydrogenase (DPD); details: cited from earlier work
structure (smiles),measurement,setting,value
"NCC(F)C(=O)O (stereo not drawn) [FBAL, α-fluoro-β-alanine]",FBAL Cp high on Day 2 (0-9 hours post capecitabine dose),[1],15 to 26 ng/mL
same,FBAL Cp low on Day 2 (0-9 hours post capecitabine dose),[1],15 to 22.6 ng/mL
same,FBAL Cp high on Day 2 (0-9 hours post capecitabine dose),[2],15 to 33.1 ng/mL
same,effect on anti-tumor activity of 5-FU,[3],decrease the anti-tumor activity of 5-FU
"C#Cc1c[nH]c(=O)[nH]c1=O [PCS6422, 5-ethynyl-1H-pyrimidine-2,4-dione]",inactivation of DPD,[4],potent and irreversible inactivator
"O=c1[nH]cc(F)c(=O)[nH]1 [5-FU, 5-fluorouracil]",fraction of administered 5-FU catabolized by DPD,[5]; background statement,over 80%
same,5-FU elimination half-life,[5]; with DPD inhibited by PCS6422,several hours
same,5-FU elimination half-life,[5]; without PCS6422,10 to 20 min
same,5FU D 8 0-9 hrs Cp Low,[1],<2 ng/mL
same,5FU D 8 Cmin,[1],<2 ng/mL
same,5FU D 9,[1],<2 ng/mL
same,highest 5-FU plasma concentration (Cp high) during 0-9 hours following capecitabine dosing,[1],309 to 466 ng/mL
same,lowest 5-FU plasma concentration (Cp low) during 0-9 hours following capecitabine dosing,[1],8.1 to 164 ng/mL
same,highest 5-FU plasma concentration (Cp high) during 0-9 hours following capecitabine dosing,[2],197 to 746 ng/mL
same,lowest 5-FU plasma concentration (Cp low) during 0-9 hours following capecitabine dosing,[2],6.4 to 283 ng/mL
same,5FU D 9,[2]; 168 h,<2 ng/mL
